Experimental data: patent publication US8586082B2, “Solid orally administerable pharmaceutical dosage forms with rapid active principle release” (Bayer Intellectual Property GmbH, priority 2005, dated 2013)
In brackets after ≈: the same amount, converted by molar mass.

Experiments:
[1] = Solubility in water of active ingredient (I); assay type: physicochemical; settings: 25° C., crystal modification I
[2] = Bioavailability, comparative study in rats (3 mg/kg); assay type: in vivo; settings: male Wistar rats, suspension, geometric means
Description: The bioavailability was investigated by administering 3 mg/kg active ingredient (I) in each case to male Wistar rats: • a) in the form of exemplary formulation 1 (suspended in water) • b) in the form of exemplary formulation 2 (suspended in water) • c) in the form of exemplary formulation 3 (suspended in water) • d) in the form of the micronized crystalline active ingredient in thermodynamically stable crystal modification I (suspended in 0.5% strength aqueous methylhydroxyethylcellulose (proprietary name: Tylose MH 300))

[3] = Bioavailability, comparative study in dogs (150 mg/kg); assay type: in vivo; settings: Beagle dogs, crossover, suspension, geometric means
[4] = In vitro release, USP apparatus 2 (paddle), non-sink conditions (supersaturation); assay type: physicochemical; settings: 75 rpm, 900 ml acetate buffer pH 4.5, 37° C., active ingredient dose 20 mg
Description: The in vitro release investigations are carried out by USP release method with apparatus 2 (paddle) at a temperature of 37° C. The speed of rotation of the stirrer is 75 rpm (revolutions per minute) in 900 ml of an acetate buffer solution of pH 4.5, which is prepared from 29.9 g of sodium acetate trihydrate and 16.6 ml of glacial acetic acid in 10 l of water.
The investigations in this connection take place under sink or non-sink conditions.
Non-sink conditions: The investigations for examining the supersaturation (increase in solubility) take place without addition of a surfactant and with a dose of 20 mg of active ingredient (I) to be released.
To illustrate the supersaturation behaviour of exemplary formulations 1 to 6 (see below), as comparison the in vitro release (non-sink conditions) of the micronized crystalline active ingredient (I) in the thermodynamically stable crystal modification I and of a rapid-release tablet formulation produced by fluidized bed granulation and comprising micronized crystalline active ingredient (I) in crystal modification I were determined.

solubility [1] [µg/mL]	AUC (0-24)norm [2] [kg·h/L]	Cmax, norm [2] [kg/L]	Cmax ([2]; rat, in vivo, oral) [ng/mL]	AUC(0-t) ([2]; rat, in vivo, oral, read-out: AUC (0-24)) [ng·h/mL]	AUC (0-24)norm [3] [kg·h/L]	Cmax, norm [3] [kg/L]	Cmax ([3]; dog, in vivo, oral) [ng/mL]	AUC(0-t) ([3]; dog, in vivo, oral, read-out: AUC (0-24)) [ng·h/mL]	Release ([4]; 15 min) [%]	Release ([4]; 30 min) [%]	Release ([4]; 60 min) [%]	Release ([4]; 90 min) [%]	SMILES
~7 (≈ 16.1 µM)													O=C(NC[C@H]1CN(c2ccc(N3CCOCC3=O)cc2)C(=O)O1)c1ccc(Cl)s1 [active ingredient (I), 5-Chloro-N-({(5S)-2-oxo-3-[4-(3-oxo-4-morpholinyl)phenyl]-1,3-oxazolidin-5-yl}methyl)-2-thiophenecarboxamide]
	0.254	0.074	222	762	0.081	0.015	2220	12200	23	34	41	44	O=C(NC[C@H]1CN(c2ccc(N3CCOCC3=O)cc2)C(=O)O1)c1ccc(Cl)s1 [Comparative Formulation 1.1, 5-Chloro-N-({(5S)-2-oxo-3-[4-(3-oxo-4-morpholinyl)phenyl]-1,3-oxazolidin-5-yl}methyl)-2-thiophenecarboxamide]
